Experiments:
Experiment in all cases: IC50 (cell viability, 72 h) (ln(µM))
ORL-166 = test system: ORL-166
Method: (§1)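 Discovery screen of OSCC cell lines in 1,536-well plates. Cells were treated 24 h after seeding with 7 concentrations spanning a 1,000-fold half-log range for 72 h, and viability was read by CellTiter-Glo 2.0 and normalised to DMSO (1) and medium-only (0) controls. IC50 comes from a two-parameter logistic nonlinear mixed-effects fit and is reported as natural log of IC50 in µM.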

ORL-214 = test system: ORL-214
Method: as §1

ORL-156 = test system: ORL-156
Method: as §1

SCC-9 = test system: SCC-9
Method: as §1

ORL-115 = test system: ORL-115
Method: as §1

PE-CA-PJ15 = test system: PE-CA-PJ15
Method: as §1

ORL-188 = test system: ORL-188
Method: as §1

ORL-136 = test system: ORL-136
Method: as §1

ORL-215 = test system: ORL-215
Method: as §1

HSC-2 = test system: HSC-2
Method: as §1

ORL-150 = test system: ORL-150
Method: as §1

HSC-4 = test system: HSC-4
Method: as §1

HO-1-u-1 = test system: HO-1-u-1
Method: as §1

ORL-204 = test system: ORL-204
Method: as §1

ORL-207 = test system: ORL-207
Method: as §1

SAS = test system: SAS
Method: as §1

BICR10 = test system: BICR10
Method: as §1

ORL-153 = test system: ORL-153
Method: as §1

ORL-48 = test system: ORL-48
Method: as §1

ORL-174 = test system: ORL-174
Method: as §1

ORL-195 = test system: ORL-195
Method: as §1

| SMILES | IC50 (ln) (ORL-166) | IC50 (ln) (ORL-214) | IC50 (ln) (ORL-156) | IC50 (ln) (SCC-9) | IC50 (ln) (ORL-115) | IC50 (ln) (PE-CA-PJ15) | IC50 (ln) (ORL-188) | IC50 (ln) (ORL-136) | IC50 (ln) (ORL-215) | IC50 (ln) (HSC-2) | IC50 (ln) (ORL-150) | IC50 (ln) (HSC-4) | IC50 (ln) (HO-1-u-1) | IC50 (ln) (ORL-204) | IC50 (ln) (ORL-207) | IC50 (ln) (SAS) | IC50 (ln) (BICR10) | IC50 (ln) (ORL-153) | IC50 (ln) (ORL-48) | IC50 (ln) (ORL-174) | IC50 (ln) (ORL-195) |
| --- | --- | --- | --- | --- | --- | --- | --- | --- | --- | --- | --- | --- | --- | --- | --- | --- | --- | --- | --- | --- | --- |
| CCC1=C[C@@H]2CN(C1)Cc1c([nH]c3ccccc13)[C@@](C(=O)OC)(c1cc3c(cc1OC)N(C)[C@H]1[C@@](O)(C(=O)OC)[C@H](OC(C)=O)[C@]4(CC)C=CCN5CC[C@]31[C@@H]54)C2 [Vinorelbine] | -3.98 | -3.96 | -4.75 | -2.4 | -3.17 | -2.05 | -4.3 | -0.871 | -4.43 | -4.57 | -4.87 | -1.06 | -2.27 | -2.86 | -4.86 | -1.52 | -3.91 | -4.32 | -4.11 | -4 | -3.19 |
| CC[C@@H]1C(=O)N(C)c2cnc(Nc3ccc(C(=O)N[C@H]4CC[C@H](N5CCN(CC6CC6)CC5)CC4)cc3OC)nc2N1C(C)C [Volasertib] | -2.71 | -1.65 | -2.61 | -0.541 | -2.17 | 0.264 | -2.92 | 2.12 | -2.84 | -2.15 | -3.61 | -0.173 | -1.37 | -0.0575 | -2.9 | -0.561 | -2.43 | -2.22 | -1.36 | -2.1 | -1.33 |

Source: the supplement of paper PMC11551840
